Entries after “also recorded” stand apart in the source; their conditions may differ. Like-named read-outs stand apart in the source and are kept apart here.

For test [1], the target named is T1, GPR139 (Homo sapiens, UniProt Q6DWJ6).
T1 sequence (Q6DWJ6 1-353): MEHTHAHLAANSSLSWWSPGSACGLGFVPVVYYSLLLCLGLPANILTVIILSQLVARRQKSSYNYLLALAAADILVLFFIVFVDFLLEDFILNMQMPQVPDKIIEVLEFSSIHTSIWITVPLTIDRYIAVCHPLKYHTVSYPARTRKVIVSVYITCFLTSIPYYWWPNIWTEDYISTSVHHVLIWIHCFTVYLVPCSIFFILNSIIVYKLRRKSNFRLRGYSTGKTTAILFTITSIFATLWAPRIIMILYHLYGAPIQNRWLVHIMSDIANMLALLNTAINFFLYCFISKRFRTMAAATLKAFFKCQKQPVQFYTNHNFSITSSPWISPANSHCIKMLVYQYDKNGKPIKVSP
More on the design: method as in ref 11 (Shi et al.). The following applies: ref 11 (Shi et al.), cited from earlier work; for EC50: GPR139 agonist potency.

Test [2] has as its target T1, GPR139. More on the design: method as in ref 13, 14 (Dvorak et al.). The settings on record: 14 (Dvorak et al.), cited from earlier work; for Emax: relative to L-Trp; for EC50: mean of at least three experiments.
Test [3] has as its target T1, GPR139. Nature of the test: Fluo-4 Ca2+-assay in CHO-k1 cells stably expressing GPR139 (CHO-GPR139). It counts as cell-based. The following applies: for Emax: CHO-K1, relative to 1a. The protocol: Compound 1a[11] was kindly provided by H. Lundbeck A/S, Denmark. Compound 7c (Enamine no: Z31449867) was tested as a racemate, as the (S)-form described by Janssen et al. was not commercially available. All compounds were dissolved to 20 mM in DMSO (Sigma, D2650) and subsequently diluted in a HEPES buffer (HBSS (Invitrogen, 14025) supplemented with 20 mM HEPES + 1 mM MgCl2 + 1 mM CaCl2, pH = 7.4) to a final concentration 0.5% DMSO in the assay. The DMSO level was kept constant for all concentrations of all compounds. DMSO was confirmed not to have any activity by itself at this concentration. L-Tryptophan (T0254) and L-Phenylalanine (P2126) were obtained from Sigma-Aldrich and dissolved directly in buffer.
All compounds were tested on a CHO-k1 cell line stably expressing GPR139 (CHO-GPR139) kindly provided by H. Lundbeck A/S, Denmark, and also on a CHO-k1 cell line stably expressing the M1 receptor (CHO-M1) (The Missouri S&T cDNA Resource Center, #CEM100TN00) to check for specificity. The CHO-GPR139 was grown in Dulbecco’s modified eagle medium (DMEM) F12-Kaighn’s (Gibco, 21127) supplemented with 10% dialysed fetal bovine serum (Gibco, 26400, United States origin), 1% GlutaMAX^TM-I (100X) (Gibco, 35050), and 100 units/mL penicillin and 100 μg/mL streptomycin (Gibco, 15140) and 1.0 mg/mL geneticin (Invitrogen, 1181103). CHO-M1 was grown in Ham’s F12 (Gibco, 21765) supplemented with 10% fetal bovine serum (Gibco, 10270, South America origin) +100 units/mL penicillin and 100 μg/mL streptomycin (Invitrogen, 15140–122) and 0,25 mg/mL geneticin (Life Technologies, 11811–031). Compound 1a and carbamoylcholine chloride (Sigma-Aldrich, C4382) were used as positive controls in the two cell lines, respectively.
30.000 cells/well were plated in black 96-well plates with flat clear bottoms (Corning, Falcon, 353219) and incubated overnight. The Fluo-4 dye loading solution (Invitrogen, F36206) was prepared according to the manufacturer’s instructions by dissolving it in HEPES buffer supplemented with 2.5 mM probenecid. 50 μL dye loading solution was added to each well. Cells were incubated with the Fluo-4 dye for 60 min at 37 °C, then washed with 100 μL HEPES buffer. 100 μL HEPES buffer supplemented with 2.5 mM probenecid was then added to each well and incubated in 10 minutes at 37 °C before measurement. 33 μL of the test compounds (4x concentrated) were added automatically after baseline measurements. Intracellular calcium change was recorded on a NOVOstar instrument (BMG Labtech) at 37 °C with an excitation filter of 485 nm and an emission filters 520 nm. Data originate from three independent experiments in triplicates.

Setting [4] is: CHO-GPR139, mean of at least three experiments.

The term EC50 denotes the concentration giving half of the maximal effect. What is called Emax is the maximal effect, on the per cent scale that the assay sets. With `O=C(NNC(=O)c1ccccc1)Nc1cccc2ccccc12` [1b], in test [1], the EC50 is 2400 nM and the Emax is on record as 85%. In the case of `CCOc1ccccc1C(=O)NNC(=O)Nc1cccc2ccccc12` [1d], the Emax in test [1] is reported as 53%. For `CCc1cc(CC)cc(C(=O)NNC(=O)Nc2cccc3ccccc23)c1` [1e], the Emax in test [1] was 6%.

With `O=C(NNC(=O)c1ccc(F)cc1)Nc1cccc2ccccc12` [1g], in test [1], the EC50 is 440 nM and the Emax was 96%. With `COc1cc(C(=O)NNC(=O)Nc2cccc3ccccc23)cc(OC)c1OC` [1h], in test [1], the EC50 is 63 nM and the Emax is 76%.

Regarding `O=C(NNC(=O)c1ccc(Oc2ccccc2)cc1)Nc1cccc2ccccc12` [1i], in test [1], the EC50 is 2100 nM and the Emax is listed as 61%. Consider `COc1cc(OC)cc(C(=O)NNC(=O)Nc2ccc(Br)c3ccccc23)c1` [1j], for which the Emax in test [1] is on record as 73%.

As to `COc1cc(OC)cc(C(=O)NNC(=O)Nc2ccc(C#N)c3ccccc23)c1` [1k], the Emax in test [1] is on record as 20%.

In the case of `COc1cc(OC)cc(C(=O)NNC(=O)Nc2c(C)ccc3ccccc23)c1` [1l], in test [1], the EC50 was 86 nM and the Emax is reported as 86%.

Take `COc1cc(OC)cc(C(=O)NNC(=O)Nc2ccc(Cl)c3ccccc23)c1` [1m]: the Emax in test [1] is reported as 64%. Regarding `COc1cc(OC)cc(C(=O)NNC(=O)Nc2cccc3c(Br)cccc23)c1` [1n], in test [1], the Emax is 54%.

Consider `COc1cc(OC)cc(C(=O)NNC(=O)Nc2cccc3ccc(OC)cc23)c1` [1o], for which the Emax in test [1] is reported as 50%. Regarding `COc1cc(CNNC(=O)Nc2cccc3ccccc23)cc(OC)c1` [1p], the EC50 in test [1] is greater than 10000 nM. Consider `COc1cc(OC)cc(C(=O)CNC(=O)Nc2cccc3ccccc23)c1` [1q], for which, in test [1], the EC50 was 3300 nM and the Emax is 100%. With `COc1cc(OC)cc(C(=O)NCC(=O)Nc2cccc3ccccc23)c1` [1r], in test [1], the EC50 is 180 nM and the Emax is 98%. In the case of `COc1cc(OC)cc(C(=O)N(C)NC(=O)Cc2cccc3ccccc23)c1` [1t], in test [1], the EC50 was 2500 nM and the Emax is 74%. As for `COc1cc(OC)cc(C(=O)NN(C)C(=O)Cc2cccc3ccccc23)c1` [1u], in test [1], the EC50 was 5100 nM and the Emax was 84%.

For `C[C@H](NC(=O)CNC(=O)c1ccccc1)c1ccccc1` [7a], the Emax in test [2] is reported as 130%. Take `C[C@H](NC(=O)CNC(=O)c1ccc(Cl)cc1)c1ccccc1` [7d]: in test [2], the Emax is given as 117%.

As to `Cc1cccc(C(=O)NCC(=O)N[C@@H](C)c2ccccc2)c1` [7e], the Emax in test [2] is recorded as 137%. Regarding `C[C@H](NC(=O)CNC(=O)c1cccc(C#N)c1)c1ccccc1` [7f], in test [2], the Emax is on record as 129%. As to `C[C@H](NC(=O)CNC(=O)c1cccc(F)c1)c1ccccc1` [7g], the maximum response (Emax) in test [2] is on record as 118%. Regarding `COc1cccc(C(=O)NCC(=O)N[C@@H](C)c2ccccc2)c1` [7h], the Emax in test [2] was 146%. Consider `C[C@H](NC(=O)CNC(=O)c1cccc(C(F)(F)F)c1)c1ccccc1` [7i], for which the Emax in test [2] is listed as 134%. Consider `C[C@H](NC(=O)CNC(=O)c1cccc(OC(F)(F)F)c1)c1ccccc1` [7j], for which the Emax in test [2] is given as 129%.

In the case of `C[C@H](NC(=O)CNC(=O)c1cccc(Cl)c1Cl)c1ccccc1` [7k], the Emax in test [2] is given as 113%. Consider `C[C@H](NC(=O)CNC(=O)c1ccc(Cl)c(Cl)c1)c1ccccc1` [7l], for which the Emax in test [2] is on record as 106%.

As to `C[C@H](NC(=O)CNC(=O)c1cc(Cl)ccc1Cl)c1ccccc1` [7m], the Emax in test [2] is recorded as 139%. In the case of `C[C@H](NC(=O)CNC(=O)c1cc(Cl)cc(Cl)c1)c1ccccc1` [7n], in test [2], the Emax was 119%. Turning to `C[C@H](NC(=O)CNC(=O)c1cc(F)cc(Cl)c1)c1ccccc1` [7o], in test [2], the Emax is recorded as 124%. Take `C[C@H](NC(=O)CNC(=O)c1cc(Cl)cc(Br)c1)c1ccccc1` [7p]: the Emax in test [2] was 113%. On to `COc1cc(OC)cc(C(=O)NCC(=O)N[C@@H](C)c2ccccc2)c1` [7q], for which the Emax in test [2] is on record as 149%.

In turn, `CCN1C(C)=NC2C=C(C(=O)NNC(=O)c3c(-c4ccccc4)noc3C)C=CC21` (stereo not drawn) [DL83] yielded an EC50 in test [3] (values in text) greater than 10000 nM. Take `CCn1c(C)nc2cc(C(=O)NNC(=O)Cc3coc4ccc5ccccc5c34)ccc21` [DL85]: the EC50 in test [3] (setting [4]) and in test [3] (values in text) was 1020 nM each time. The Emax in test [3] amounted to 95%. As for `COc1cc(OC)cc(C(=O)NNC(=O)c2cccc3ccccc23)c1` [DL96], the “GPR139 agonist activity (in words)” value in test [3] (CHO-GPR139) is “loss of activity; also recorded: Inactive”. In test [3] (setting [4]), `CN(C(=O)CNC(=O)c1ccc2c(c1)OCO2)C1CCc2ccccc21` (stereo not drawn) [DL131] came in with an EC50 of 1090 nM. The same compound displayed an Emax in test [3] of 101%. The compound `O=C(CN1CCCc2ccccc21)NNC(=O)c1ccc2[nH]cnc2c1` [DL144] returned a concentration for a half-maximal effect (EC50) in test [3] (setting [4]) of 1160 nM. Besides, the maximum response (Emax) in test [3] was 96%. For `CCn1c(C)nc2cc(C(=O)NNC(=O)CC(C)c3ccccc3)ccc21` (stereo not drawn) [DL146], the EC50 in test [3] (setting [4]) was 4720 nM; in test [3] (values in Figure 5 and Supplementary Chart 1), 4710 nM. The compound also had an Emax in test [3] of 85%. In the case of `C=C(C)c1cccc(C(C)(C)NC(=O)NNC(=O)c2ccc3c(c2)nc(C)n3CC)c1` [DL148], it took 1220 nM to reach a half-maximal effect in test [3] (setting [4]) (EC50). The same compound registered an Emax in test [3] of 100%. With `COc1cc(OC)cc(C(=O)NCCC(=O)N2CCCc3ccccc32)c1` [DL154], in test [3] (setting [4]), the response was half-maximal at 1500 nM (EC50). The same compound yielded an Emax in test [3] of 91%.

`C[C@H](NC(=O)CNCc1cccc(Cl)c1)c1ccccc1` [compound 8]: the EC50 in test [2] was greater than 10000 nM. Turning to `C[C@H](NCCNC(=O)c1cccc(Cl)c1)c1ccccc1` [compound 9], the EC50 in test [2] was greater than 10000 nM. As to `COc1cccc(C(=O)N[C@@H](C)C(=O)N[C@@H](C)c2ccccc2)c1` [compound 10], the Emax in test [2] is 143%. With `COc1cccc(C(=O)N[C@H](C)C(=O)N[C@@H](C)c2ccccc2)c1` [compound 11], the Emax in test [2] is on record as 88%. With `COc1cccc(C(=O)N[C@@H](CO)C(=O)N[C@@H](C)c2ccccc2)c1` [compound 12], in test [2], the Emax is 107%.
